Laboratory results taken from paper doi:10.1101/2022.06.14.496144v1, “Crystal structure and functional peculiarities of a primordial Orange Carotenoid Protein (OCPX)” (biorxiv, 2022).
Substitutions are numbered along the chain they refer to.

Tests used:
Type in all cases: binding
ΔNTE-GlOCPX = target: T1, ΔNTE-GlOCPX (Gloeobacter kilaueensis, UniProt U5QHX0); assay: co-purified holoprotein, absorbance, photocycle; conditions: pH 7.6; ECH-producing E. coli
T1 construct: gene GKIL_2275; N-terminal extension M1-P17 removed, E. coli C41(DE3) making ECH, His-3C tag
T1 sequence (U5QHX0 18-322): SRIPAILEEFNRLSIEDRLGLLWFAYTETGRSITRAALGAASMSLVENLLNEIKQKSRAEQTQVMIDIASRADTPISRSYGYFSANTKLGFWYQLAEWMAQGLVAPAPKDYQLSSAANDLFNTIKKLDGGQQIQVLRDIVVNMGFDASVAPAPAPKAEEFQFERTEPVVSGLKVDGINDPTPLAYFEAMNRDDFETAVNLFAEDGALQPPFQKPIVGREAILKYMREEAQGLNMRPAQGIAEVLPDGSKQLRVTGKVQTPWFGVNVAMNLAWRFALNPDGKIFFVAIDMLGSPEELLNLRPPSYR

GlOCPX [1] = target: T2, GlOCPX (Gloeobacter kilaueensis, UniProt U5QHX0); assay: co-purified holoprotein, SEC with absorbance spectra, photocycle; conditions: pH 7.6; ECH-producing E. coli
T2 construct: gene GKIL_2275; full length M1-R322, codon-optimised, E. coli C41(DE3) making ECH or CAN, His tag cut by 3C leaving N-terminal GPH
T2 sequence (U5QHX0 1-322): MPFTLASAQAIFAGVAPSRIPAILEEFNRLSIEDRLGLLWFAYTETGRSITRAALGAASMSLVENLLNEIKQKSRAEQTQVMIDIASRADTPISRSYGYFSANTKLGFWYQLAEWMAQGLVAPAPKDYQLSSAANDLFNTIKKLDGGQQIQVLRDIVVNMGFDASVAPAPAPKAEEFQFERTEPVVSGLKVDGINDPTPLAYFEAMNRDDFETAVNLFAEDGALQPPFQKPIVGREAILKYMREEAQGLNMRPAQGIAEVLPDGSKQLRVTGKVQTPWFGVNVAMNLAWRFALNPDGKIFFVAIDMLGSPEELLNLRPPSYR

GlOCPX [2] = target: T3, GlOCPX (Gloeobacter kilaueensis, UniProt U5QHX0, E25A); assay: X-ray crystal structure, […] Å; conditions: between NTD and CTD; pH 6.5 crystals
T3 construct: gene GKIL_2275; full length M1-R322, codon-optimised, E. coli C41(DE3) making ECH or CAN, His tag cut by 3C leaving N-terminal GPH
T3 sequence (U5QHX0 1-322 E25A): T2 sequence (U5QHX0 1-322) with E25A

CC1=C(/C=C/C(C)=C/C=C/C(C)=C/C=C/C=C(C)/C=C/C=C(C)/C=C/C2=C(C)C(=O)CCC2(C)C)C(C)(C)CCC1 [ECH, echinenone]
co-purified holoprotein, absorbance, photocycle (ΔNTE-GlOCPX): All samples uniformly contained ECH as a cofactor | co-purified holoprotein, SEC with absorbance spectra, photocycle (GlOCPX [1]): produced GlOCPX in Escherichia coli strains synthesizing ketocarotenoids canthaxanthin (CAN) or echinenone (ECH) | X-ray crystal structure, 1.7 Å (GlOCPX [2]): A well-defined density revealed that the GlOCPX-embedded carotenoid is echinenone (ECH)
